For data set [1], the system named is Enzyme. The experiment in a line: Secondary pharmacology panel, target #24.
Method: (§1) For enzyme and kinase assays, the results were expressed as a percent inhibition of control-specific activity obtained in the presence of the test compound. The IC50 values (concentration causing a half-maximal inhibition of control-specific activity) and Hill coefficients (nH) were determined by nonlinear regression analysis of the inhibition/concentration–response curves using Hill equation curve fitting as described earlier[37].
(§2) For assessment of activity against these targets, compounds were tested in an 8-point
(§3) concentration response covering half-log units up to a top test concentration of 100 µM, and
(§4) an IC50 or Ki determined using either radio ligand binding assays or enzyme activity assays.
Data set [2] relates to Enzyme. The experiment in a line: Secondary pharmacology panel, target #23.
Method: as §1, §2, §3, §4
In data set [3] the test system is Ion channel. The experiment in a line: Secondary pharmacology panel, target #5.
Method: (§5) An in vitro pharmacological profiling panel was specifically designed for the detection of potential high- risk clinical adverse drug reactions. […] For enzyme and kinase assays, the results were expressed as a percent inhibition of control-specific activity obtained in the presence of the test compound. The IC50 values (concentration causing a half-maximal inhibition of control-specific activity) and Hill coefficients (nH) were determined by nonlinear regression analysis of the inhibition/concentration–response curves using Hill equation curve fitting as described earlier[37].
(§6) For radioligand binding assays, the results are expressed as % inhibition of control-specific binding obtained in the presence of the test compounds. The IC50 values (concentration causing a half-maximal inhibition of control-specific binding) and Hill coefficients (nH) were determined by nonlinear regression analysis of the competition curves generated with mean replicate values using Hill equation curve fitting. The inhibition constants (Ki) were subsequently calculated by applying the Cheng Prusoff equation[38].
as §2, §3, §4
Data set [4] relates to Transporter. The experiment in a line: Secondary pharmacology panel, target #14.
Method: as §5, §6, §2, §3, §4
Data set [5] has as its system Enzyme. The experiment in a line: Secondary pharmacology panel, target #19.
Method: as §1, §2, §3, §4
Data set [6] relates to Ion channel. The experiment in a line: Secondary pharmacology panel, target #21.
Method: as §5, §6, §2, §3, §4
Data set [7] deals with Enzyme. The experiment in a line: Secondary pharmacology panel, target #15.
Method: as §1, §2, §3, §4
In data set [8] the test system is GPCR 9. In words: Secondary pharmacology panel, target #20.
Method: as §1, §6
targets (8 enzymes, 5 ion channels, 10 GPCRs and 2 transporters) and hERG.
as §2, §3, §4
The test system of data set [9] is Transporter. The experiment in a line: Secondary pharmacology panel, target #7.
Method: as §5, §6, §2, §3, §4
Data set [10] relates to Ion channel. The experiment in a line: Secondary pharmacology panel, target #2.
Method: as §5, §6, §2, §3, §4
For data set [11], the system named is Enzyme. The experiment in a line: Secondary pharmacology panel, target #11.
Method: as §1, §2, §3, §4
Data set [12] concerns GPCR. The experiment in a line: Secondary pharmacology panel, target #22.
Method: as §5, §6, §2, §3, §4
Data set [13] concerns GPCR. In words: Secondary pharmacology panel, target #26.
Method: as §5, §6, §2, §3, §4
A short description of data set [14]: Blood-plasma ratio, mouse. Format: in vitro ADME.
In data set [15] the test system is Dd2-6R F4 D4. The experiment in a line: SYBR green growth assay, Dd2-6R F4 D4. The conditions noted are these: Plasmodium falciparum.
Method: Assays were carried out in 384-well format with three technical replicates within an assay day and biological replicates carried out on three different assay days to assign a final EC50.
The drug was then washed off and the parasites were allowed to recover in normal growth media.
A short description of data set [16]: PK in the blood of infected Pf/SCID mice. Format: in vivo, mouse. How it is done: Peripheral blood samples (25 μl) were taken at different times (0.25, 0.5, 1, 2, 4, 6, 8 and 23 h), mixed with 25 μl of H2O Mili-Q and immediately frozen on dry ice. The frozen samples were stored at −80 °C until analysis. Vehicle-treated mice experienced the same blood-sampling regimen. Blood samples were processed by liquid–liquid extraction by mixing 10 μl diluted blood with 180 μl AcN:MeOH (80:20; v-v) mixture. Quantitative analysis by Liquid chromatography-tandem mass spectrometry (LC-MS/MS) was performed using UPLC (Waters) and Sciex API4000. The lower limit of quantification in this assay was 0.005 μg ml^−1.

Data set [17] in a line: Plasma protein binding, guinea pig.
Data set [18] is described as follows: Hepatocyte Clint, rat. Format: in vitro ADME. The note with it: for Predicted blood CL: Rat. The source says: Supplementary Note 5: Prediction of human clearance for compound 12 by IVIVE.
Human clearance (CL) was predicted by in vitro-in vivo extrapolation (IVIVE) from the in vitro Clint in human hepatocytes6. In vitro Clint was scaled to in vivo Clint as follows:
Clint in vivo = Clint in vitro * scaling factors * fublood/fuinc
The liver weights used for scaling were 40, 32 and 24 g/kg body weight in rat, dog and human respectively. Hepatocellularity used for scaling was 163, 169 and 120 (X 106) cells/g liver in rat, dog and human respectively. Free fraction in blood was calculated as fuplasma /Blood:Plasma (BP) ratio. BP ratio and free fraction in the hepatocyte incubation mix, fuinc, were measured in vitro. Slope and intercept from the linear regression analysis of IVIVC for a large number of AstraZeneca compounds was applied for final correction in the scaled in vivo Clint. A well stirred model was used for CL prediction.
Where Qh is the liver blood flow. The values of Qh in rat, dog and human are 72, 55 and 20 mL.min-1kg-1 in rat, dog and human, respectively. In vitro parameters, observed in vivo CL and predicted CL are shown in supplementary Table 10. […]
(also on this page, place not known: in vivo in vivo CLintQ CLintQCL Predicted predicted predicted h h + ×=)
(1 picture or pasted object on this page, not shown here)

The nature of data set [19]: in vitro. Format: in vitro ADME. The note with it: pH 7.4, Michaelis-Menten. How it is done:
Supplementary Note 3: Metabolism of 12 in the presence of mouse (MLM) and human […]
The kinetics of metabolism of compound 12 to form the N-demethylated metabolite, 9, was studied by incubating 12 with HLM or MLM. Compound 12 was incubated with 1 mg/mL of pooled liver microsomes at four different compound concentrations (5, 10, 20 and 30 μM) in 166 µL of buffer containing 100 mM phosphate buffer, pH 7.4 and 1 mM NADPH, at 37°C.
Aliquots of 20 µL of incubation mix were quenched with 4 volumes of ice-cold acetonitrile at different time points, i.e., 0, 5, 10, 20 and 30 min in a 96 well microtitre plate. The quenched plate was centrifuged at 4000 rpm for 15 min and 20 µL of the supernatant was diluted to 200 µL with 50% acetonitrile in water. Depletion of 12 and formation of 9 was analysed by LC-MS/MS. Concentrations of 12 and 9 were determined using calibration curves prepared with synthetic standards. Kinetics of metabolite formation or parent depletion is shown in supplementary Fig. 5, Fig. 6 and kinetic parameters are described in supplementary Table […]
The rate and extent of metabolite formation in the presence of mouse liver microsomes was […]
than in the presence of HLM.

A short description of data set [20]: Caco2 permeability. The conditions noted are these: human, Caco-2.
Data set [21] is described as follows: Plasma protein binding, mouse.
A short description of data set [22]: Plasma protein binding, rat.

These results are taken from PMC4389225, “Triaminopyrimidine is a fast-killing and long-acting antimalarial clinical candidate” (Nature Communications, 2015).

A word on the IC50: it is the concentration at which inhibition is half-maximal. A lower IC50 goes with higher potency. For orientation: CL/F means the apparent clearance, not corrected for the fraction that reaches the circulation. As a reminder, the fraction unbound is the share of the substance not bound to proteins or other matrix. The low end stands for extensive binding, the high end for weak binding. Broadly, the hepatocyte CLint is the rate of metabolic loss divided by the concentration. Lower therefore signals greater metabolic stability. Usually Km stands for the concentration of substrate that gives half-maximal velocity. Usually Papp A→B stands for how fast a substance crosses the layer from the apical side. A lower Papp A→B goes with poor permeation.

Consider `Cc1cc(Nc2ncc(N3CCN(C)CC3)c(N3CCCC3)n2)ccn1` [compound 2], for which the “Binding Ki / Enzyme IC50” value in data set [1] is listed as over 100 µM; in data set [2] it was over 100 µM; in [3], 3.64 µM; in data set [4], 31.45 µM; in data set [5], over 100 µM; in data set [6], over 100 µM. In addition, the “Binding Ki / Enzyme IC50” value is 13 µM in [7]; over 100 µM in data set [8]; 17.1 µM in data set [9]; 0.933 µM in [10]; over 100 µM in data set [11]; over 100 µM in [12]. The “Binding Ki / Enzyme IC50” value in [13] was over 100 µM.

Turning to `Cc1nc(Nc2ncc(N3CCN(C)[C@H](C)C3)c(Nc3cc(C)n(C)n3)n2)cc(C2CC2)c1F` [compound 12, (R)-N2-(4-cyclopropyl-5-fluoro-6-methylpyridin-2-yl)-N4-(1,5-dimethyl-1H-pyrazol-3-yl)-5-(3,4-dimethylpiperazin-1-yl)pyrimidine-2,4-diamine], the “Binding Ki / Enzyme IC50” value in data set [1] was over 100 µM; in data set [2] it was over 100 µM; in data set [3], 8.58 µM; in [4], 10.1 µM; in [5] it was 14.5 µM; in data set [6], over 100 µM. The “Binding Ki / Enzyme IC50” value is 11.6 µM in [7]; over 100 µM in data set [8]; 3.85 µM in data set [9]; 2.62 µM in data set [10]; 4.29 µM in data set [11]; over 100 µM in data set [12]. Moreover, the “Binding Ki / Enzyme IC50” value in [13] is over 100 µM. The “B:P ratio” value in data set [14] is 1.2. For the same compound, in [15], it took 81.6 nM to reach half-maximal inhibition (IC50). Further, the CL/F in [16] (SCID, mouse, whole blood, oral, parent, Fixed) was 650 mL/min/kg. For the same compound, in data set [16] (at 40 mg kg^−1), the “Blood Cmin (minimum parasiticidal concentration, MPC)” value worked out at 0.04 µM. In addition, the Ka in [16] (parent, Fixed) stood at 1 h⁻¹. Also, the Ke0 in data set [16] (parent, Fixed) stood at 0.06 h⁻¹. The Vc/F in data set [16] (parent, Fixed) came out at 462 L/kg. In data set [17] (Guinea pig), the “Plasma protein binding (% free)” value amounted to 5.5 % free. The fraction unbound in data set [17] (guinea pig, plasma) turned out to be 0.055; in [21] (Plasma protein binding (% free)), 0.0055; in [21] (Plasma protein binding, Plasma fu, fraction unbound) it was 0.005; in data set [22], 0.04. Moreover, the “Predicted blood CL” value in data set [18] was 26 % LBF; in data set [18] (IVIVC from hepatocyte Clint), 18.8 mL/min/kg. The compound also returned a hepatocyte CLint in data set [18] (rat, hepatocytes) of 11.3 µL/min/1e6 cells. In addition, the Km in [19] (human, HLM) turned out to be 22.5 µM; in data set [19] (mouse, MLM) it was 78.3 µM. This compound also gave a Papp A→B in [20] of 25 ×10⁻⁶ cm/s.
